Measured values: patent US20030027870A1, “Fullerene derivatives that modulate nitric oxide synthase and clamodulin activity” (priority 2001, published 2003)

Key:
[1] = biological target: T1, nNOS (Rattus norvegicus, UniProt P29476); assay: Citrulline formation assay, nNOS; format: biochemical; settings: read-out: IC50 for Inhibition of Citrulline Formation
T1 construct: endogenous in cells; host or cells: rat GH3 pituitary cells; enzyme purified on 2',5'-ADP-agarose and calmodulin-Affi Gel 15 agarose
Experimental: (§1) Neuronal NOS was purified from rat GH3 pituitary cells grown in Ham's F-10 supplemented with 12.5% horse serum and 3% fetal bovine serum. Cells were homogenized in 5 volumes of 50 mM Mops, pH 7.4, 1 mM EGTA, 1 mM DTT, 100 mM NaCl, 0.5% CHAPSO, 50 μM BH4, 100 μM leupeptin, and 10 μM E64. A postmitochondrial supernatant fraction was generated by centrifugation and was affinity-purified on 2′,5′ADP-agarose as reported previously (Wolff, D. J. and Datto, G. (1992) Biochem. J. 284:201-206). The affinity-purified proteins were eluted with 50 mM Mops, pH 7.4, 1 mM EGTA, 1 mM DTT, 5 mM NADPH, 0.1% CHAPSO, 150 mM NaCl, 50 μM BH4, 100 μM leupeptin, and 10 μM E64. […] Fractions containing nNOS as determined by citrulline formation assay were concentrated with a Centriprep 30 (Amicon).
Citrulline formation by NOS isoforms was measured in 150 μL reaction mixtures containing 30 mM Hepes, pH 7.5, 1 mM DTT, 120 nM L-[2,3-^3H]-arginine without or with unlabeled arginine, 1 mM EGTA, 0.85 mM Ca^2+ (when present), 6 μM CaM (calmodulin, when present), 100 μM NADPH, and 300 μM BH4. Incubations were initiated by the addition of enzyme and reaction mixtures incubated for 30 min at 30° C. in duplicate and reactions stopped and analyzed as described by Wolff and Datto (Wolff and Datto, 1992). […]

[2] = biological target: T2, eNOS (Bos taurus, UniProt P29473); assay: Citrulline formation assay, eNOS; format: biochemical, Bovine; settings: read-out: IC50 for Inhibition of Citrulline Formation
T2 construct: Bovine pulmonary arterial endothelial NOS (ENOS) was prepared; from tissue; host or cells: bovine pulmonary arterial endothelium
Experimental: Bovine pulmonary arterial endothelial NOS (ENOS) was prepared and characterized as described previously (Wolff, D. J. et al. (1994) Arch. Biochem. Biophys. 312:360-366).
(§2) Citrulline formation by NOS isoforms was measured in 150 μL reaction mixtures containing 30 mM Hepes, pH 7.5, 1 mM DTT, 120 nM L-[2,3-^3H]-arginine without or with unlabeled arginine, 1 mM EGTA, 0.85 mM Ca^2+ (when present), 6 μM CaM (calmodulin, when present), 100 μM NADPH, and 300 μM BH4. Incubations were initiated by the addition of enzyme and reaction mixtures incubated for 30 min at 30° C. in duplicate and reactions stopped and analyzed as described by Wolff and Datto (Wolff and Datto, 1992). When citrulline formation was measured as a function of CaM concentration 1.5 mM Ca^2+ was employed in the assay Assay of NADPH-Oxidase Activity.

[3] = biological target: T3, iNOS (Mus musculus, UniProt P29477); assay: Citrulline formation assay, iNOS; format: biochemical, murine; settings: read-out: IC50 for Inhibition of Citrulline Formation
T3 construct: Expression of iNOS was induced with 5 μg/mL of Escherichia coli lipopolysaccharide and 50 units/mL of mouse γ-interferon; endogenous in cells; host or cells: RAW 264.7 macrophages induced with LPS and interferon-gamma; enzyme purified on 2',5'-ADP-agarose and DEAE-cellulose
Experimental: Cytokine-inducible NOS was purified from murine RAW 264.7 macrophages grown in DMEM/Hepes, pH 7.5, supplemented with 10% fetal bovine serum. Expression of iNOS was induced with 5 μg/mL of Escherichia coli lipopolysaccharide and 50 units/mL of mouse γ-interferon. Homogeneous preparation of the iNOS was obtained through sequential purification on 2′,5′-ADP-agarose and DEAE-cellulose as described previously (Bryk, R. and Wolff, R. (1998) Biochemistry 37:4844-4852). Purified iNOS was about 95% pure as judged by a Coomassie-stained SDS-PAGE.
as §2

[4] = biological target: T1, nNOS; assay: NADPH-oxidase activity (NADPH consumption) of nNOS; format: biochemical
Experimental: (§3) Neuronal NOS was purified from rat GH3 pituitary cells grown in Ham's F-10 supplemented with 12.5% horse serum and 3% fetal bovine serum. Cells were homogenized in 5 volumes of 50 mM Mops, pH 7.4, 1 mM EGTA, 1 mM DTT, 100 mM NaCl, 0.5% CHAPSO, 50 μM BH4, 100 μM leupeptin, and 10 μM E64. A postmitochondrial supernatant fraction was generated by centrifugation and was affinity-purified on 2′,5′ADP-agarose as reported previously (Wolff, D. J. and Datto, G. (1992) Biochem. J. 284:201-206). The affinity-purified proteins were eluted with 50 mM Mops, pH 7.4, 1 mM EGTA, 1 mM DTT, 5 mM NADPH, 0.1% CHAPSO, 150 mM NaCl, 50 μM BH4, 100 μM leupeptin, and 10 μM E64. The eluate was adjusted to contain 2.5 mM Ca^2+ and was adsorbed to a calmodulin-Affi Gel 15 agarose column equilibrated in 50 mM Mops, 1 mM EGTA, 2.5 mM Ca^2+ 0.1% CHAPSO, 150 mM NaCl, 25 μM arginine, 1 mM DTT, 50 μM BH4, 100 μM leupeptin, and 10 μM E64. The column was washed with equilibration buffer containing 500 mM NaCl but without arginine, and nNOS was eluted with equilibration buffer containing 2.5 mM EGTA but without Ca^2+ or arginine. Fractions containing nNOS as determined by citrulline formation assay were concentrated with a Centriprep 30 (Amicon).
Standard reaction mixtures of 1 mL volume in quartz cuvettes contained 50 mM Hepes, pH 7.4, 150 μM NADPH, 6 μM CaM, 1 mM EGTA, 0.85 mM Ca^2+ and 0.15 μM BH4. Reactions were initiated by the addition of nNOS enzyme and NADPH consumption was measured from the change in light absorbance at 340 nm as compared to an identical reference cuvette without enzyme using an extinction coefficient of 6.22 mM^−1 cm^−1.

[5] = biological target: T1, nNOS; assay: Cytochrome c reductase assay of nNOS; format: biochemical; settings: at concentrations as high as 300 μM
Experimental: as §3, with “The column was washed with equilibration buffer containing 500 mM NaCl but without arginine, and nNOS was eluted with equilibration buffer containing 2.5 mM EGTA but without Ca^2+ or arginine.” left out
The cytochrome c reductase activity of nNOS was determined as described previously, (Cooper et al. (2000) Arch. Biochem. Biophys. 375:183-194) in the presence of 1 mM EGTA, 2 mM Ca^2+, and 10 μg/ml CaM. An extinction coefficient of 21 mM^−1 cm^−1 (22) was used to quantify cytochrome c reduction.

[6] = biological target: T4, nNOS dimers (Rattus norvegicus, UniProt P29476); assay: Sucrose density gradient centrifugation of nNOS; settings: fully inhibitory concentrations
T4 construct: endogenous in cells; host or cells: rat GH3 pituitary cells
T4 sequence (P29476 whole entry): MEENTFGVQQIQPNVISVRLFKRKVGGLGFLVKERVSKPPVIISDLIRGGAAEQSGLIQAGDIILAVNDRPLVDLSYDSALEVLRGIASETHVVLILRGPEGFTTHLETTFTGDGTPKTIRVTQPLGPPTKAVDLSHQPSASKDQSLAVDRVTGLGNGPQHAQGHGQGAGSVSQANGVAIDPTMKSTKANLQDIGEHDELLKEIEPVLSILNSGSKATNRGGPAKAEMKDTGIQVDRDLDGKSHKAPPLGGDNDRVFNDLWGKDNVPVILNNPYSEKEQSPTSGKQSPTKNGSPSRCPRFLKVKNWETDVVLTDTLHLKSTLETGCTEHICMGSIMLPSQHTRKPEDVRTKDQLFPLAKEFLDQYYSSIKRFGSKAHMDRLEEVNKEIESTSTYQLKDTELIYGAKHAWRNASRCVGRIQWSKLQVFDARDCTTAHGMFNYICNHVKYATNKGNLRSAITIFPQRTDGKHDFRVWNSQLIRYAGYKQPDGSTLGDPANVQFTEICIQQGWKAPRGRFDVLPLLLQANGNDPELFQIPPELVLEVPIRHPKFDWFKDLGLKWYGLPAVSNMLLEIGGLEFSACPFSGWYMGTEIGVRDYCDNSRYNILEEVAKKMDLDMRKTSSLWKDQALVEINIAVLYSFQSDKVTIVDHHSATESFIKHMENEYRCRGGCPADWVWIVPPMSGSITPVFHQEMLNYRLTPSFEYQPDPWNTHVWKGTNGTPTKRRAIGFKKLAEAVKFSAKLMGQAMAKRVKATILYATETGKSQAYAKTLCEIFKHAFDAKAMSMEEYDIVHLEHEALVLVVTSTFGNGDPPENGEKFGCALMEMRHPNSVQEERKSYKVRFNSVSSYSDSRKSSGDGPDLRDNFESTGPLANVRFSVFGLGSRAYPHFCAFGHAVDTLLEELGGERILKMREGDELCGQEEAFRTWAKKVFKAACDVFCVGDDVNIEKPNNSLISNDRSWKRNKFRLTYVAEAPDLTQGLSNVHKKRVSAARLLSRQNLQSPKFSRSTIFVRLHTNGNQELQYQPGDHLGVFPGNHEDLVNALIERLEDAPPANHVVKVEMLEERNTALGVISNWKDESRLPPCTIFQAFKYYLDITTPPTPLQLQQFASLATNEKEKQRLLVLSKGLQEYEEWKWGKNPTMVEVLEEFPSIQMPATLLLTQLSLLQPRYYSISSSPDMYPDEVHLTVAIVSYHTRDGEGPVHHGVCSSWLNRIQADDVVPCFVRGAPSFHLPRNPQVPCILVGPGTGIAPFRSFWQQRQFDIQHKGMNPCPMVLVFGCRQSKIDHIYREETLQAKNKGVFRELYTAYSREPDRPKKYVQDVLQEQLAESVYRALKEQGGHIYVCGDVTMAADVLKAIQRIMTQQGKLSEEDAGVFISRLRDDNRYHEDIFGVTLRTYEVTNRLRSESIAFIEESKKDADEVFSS
Experimental: Samples of nNOS were either unadjusted (control) or were adjusted to 50 μM C3-tris-malonyl-C60-fullerene and were applied to a 5-20% sucrose gradient containing 50 mM Mops, pH 7.4, 150 mM NaCl, 1 mM EGTA, 1 mM DTT, 0.3% CHAPSO, and 10 μM BH4, either without (control) or containing 50 μM C3-tris-malonyl-C60-fullerene. Gradients were run at 35,000 rpm for 18 h at 4° C. in an L5-L5 Beckman Ultracentrifuge using an SW41 rotor. Fractions (375 μL) were collected using an ISCO density gradient fractionator, Model 185. The fractions from the gradient were kept on ice and portions were assayed for cytochrome c reductase activity (measures both monomers and dimers) and citrulline forming activity (measures dimers exclusively). Hemoglobin (4.09S), catalyze (11.9S), and thyoglobulin (19.4S) were run in a separate tube as sedimentation markers.

[7] = biological target: T1, nNOS; assay: NO formation assay (oxyhemoglobin to methemoglobin), nNOS; format: biochemical; settings: multisite, positively cooperative inhibition of nNOS NO formation
Experimental: as §1
Nitric oxide production over time was measured spectrophotometrically at 401 nm by the conversion of oxyhemoglobin to methemoglobin (Noack, E. et al. (1992) Neuroprotocols 1:133-139). […] Methemoglobin formation was monitored against a reference cuvette containing complete reaction mixture without enzyme. NO production was calculated using an extinction coefficient of 38 mM^−1 cm^−1 (Noack et al.,1992).

[8] = biological target: T5, nNOS; assay: CaM antagonists inhibiting citrulline formation by nNOS at 6 nM CaM; format: biochemical, rat; settings: 30-min incubation
T5 construct: Bovine brain calmodulin was prepared; endogenous in cells; host or cells: rat GH3 pituitary cells (nNOS); bovine brain (calmodulin)
Experimental: Cells were homogenized in 5 volumes of 50 mM Mops, pH 7.4, 1 mM EGTA, 1 mM DTT, 100 mM NaCl, 0.5% CHAPSO, 50 μM BH4, 100 μM leupeptin, and 10 μM E64. […] Fractions containing nNOS as determined by citrulline formation assay were concentrated with a Centriprep 30 (Amicon).

| Molecule | IC50 [1] | IC50 [2] | IC50 [3] | inhibition of arginine-independent NADPH-oxidase activity of nNOS (in words) [4] | effects on cytochrome c reductase activity of nNOS [5] | dissociation of nNOS dimers into monomers [6] | Hill coefficient of inhibition [7] | IC50 ([4]; arginine-independent) | IC50 [8] |
| --- | --- | --- | --- | --- | --- | --- | --- | --- | --- |
| 1,2:34,35:40,41-tris(methano)[60] fullerene-61, 61, 62, 62, 63, 63 hexacarboxylic acid, (trans-3, trans-3, trans-3) D3 symmetry isomer [D3-Tris malonyl adduct diacid] | 86 µM | 143 µM | 317 µM | inhibited |  |  |  |  |  |
| 1,2:18,36:31,32-Tris(methano)[60] fullerene-61, 61, 62, 62, 63, 63 hexa-carboxylic acid, (e,e,e) C3 symmetry isomer [C3-Tris malonyl adduct diacid] | 24 µM | 17 µM | 123 µM | inhibited | no effects | did not produce a dissociation | 2.0 | 22 µM |  |
| Clc1ccc(C(c2ccc(Cl)cc2)n2cc[n+](CC(OCc3ccc(Cl)cc3Cl)c3ccc(Cl)cc3Cl)c2)cc1 (stereo not shown) [Calmidazolium] |  |  |  |  |  |  |  |  | 0.273 µM |
